Results taken from US20170260185A1 (priority 2014, published 2017).
Where two headings read alike, the source gives them in different places.

Legend:
[1] = target: T1, human dopamine transporter (DAT) (Homo sapiens, UniProt Q01959); assay: Scintillation Proximity Assay (SPA) competition binding, [3H]WIN-35,428, hDAT-CHO membranes
T1 construct: expressed in transfected cells; host or cells: CHO (hDAT-CHO), membrane preparation

[2] = target: T2, human norepinephrine transporter (NET) (Homo sapiens, UniProt P23975); assay: Scintillation Proximity Assay (SPA) competition binding, [3H]nisoxetine, hNET-CHO membranes
T2 construct: expressed in transfected cells; host or cells: CHO (hNET-CHO), membrane preparation

[3] = target: human ERG potassium channel (hERG) (Homo sapiens, UniProt Q12809); assay: cell-based
Description: Measure of the Effect on hERG Channel by Tail Current Recording Using In Vitro Rapid ICE™
The potency of the compounds of the invention in inhibiting human ERG potassium channel (hERG) tail current is assessed in a recombinant HEK293 cell line stably transfected with hERG cDNA using Rapid ICE™ (Rapid Ion Channel Electrophysiology) assay. Rapid ICE™ is an automated patch-clamp assay utilizing the PatchXpress 7000A system (Molecular Devices Corporation) or the QPatch HTX system (Sophion Bioscience A/S).
Briefly cells are cultivated for 24 to 72 hours before recordings in minimum essential medium supplemented with 10% FBS, 1% non-essential amino acids, 1% sodium pyruvate, 2 mM L-glutamine. The day of the experiment cells are detached with TrypLE and prepared to be loaded on the instrument. For PatchXpress cells are finally resuspended in 150 μl of Extracellular Buffer whereas for QPatch cells are resuspended in 7 ml Serum-Free Media containing 25 mM Hepes and Soybean trypsin inhibitor and immediately placed in the cell storage tank of the machine. The composition of the Extracellular Buffer is (mM): NaCl 137; KCl 4; CaCl2 1.8; MgCl2 1.0; D-glucose 10; N 2 hydroxyethylpiperazine-N′-2-ethanesulfonic acid (HEPES) 10; pH 7.4 with 1 M NaOH. The composition of the pipette solution is (mM): KCl 130; MgCl2 1.0; Ethylene glycol-bis(R-aminoethyl ether)-N,N,N′,N′-tetraacetic acid (EGTA) 5; MgATP 5; HEPES 10; pH 7.2 with 1 M KOH. The voltage protocol includes the following steps: step from −80 mV to −50 mV for 200 ms, +20 mV for 4.8 s, step to −50 mV for 5 s then step to the holding potential of −80 mV. Compounds of the invention are dissolved in DMSO and diluted in Extracellular Buffer to achieve final test concentrations (0.1, 1 and 10 μM) in 0.1% DMSO. The voltage protocol is run and recorded continuously during the experiment. The vehicle, corresponding to 0.1% DMSO in Extracellular Buffer, is then applied for 3 min followed by the test substance in triplicate. The standard combined exposure time is 5 min. The average of tail current amplitude values recorded from 4 sequential voltage pulses is used to calculate for each cell the effect of the test substance by calculating the residual current (% control) compared with vehicle pre-treatment. Data are reported as % inhibition for each concentration tested and IC50 values are estimated using DataXpress or QPatch software. At least two cells are tested, more if results diverge.

[4] = target: T3, human serotonin transporter (SERT) (Homo sapiens, UniProt P31645); assay: Scintillation Proximity Assay (SPA) competition binding, [3H]citalopram, hSERT-CHO membranes
T3 construct: expressed in transfected cells; host or cells: CHO (hSERT-CHO), membrane preparation

[5] = read-out: pIC50 DAT (converted)

T1 sequence (Q01959 whole entry): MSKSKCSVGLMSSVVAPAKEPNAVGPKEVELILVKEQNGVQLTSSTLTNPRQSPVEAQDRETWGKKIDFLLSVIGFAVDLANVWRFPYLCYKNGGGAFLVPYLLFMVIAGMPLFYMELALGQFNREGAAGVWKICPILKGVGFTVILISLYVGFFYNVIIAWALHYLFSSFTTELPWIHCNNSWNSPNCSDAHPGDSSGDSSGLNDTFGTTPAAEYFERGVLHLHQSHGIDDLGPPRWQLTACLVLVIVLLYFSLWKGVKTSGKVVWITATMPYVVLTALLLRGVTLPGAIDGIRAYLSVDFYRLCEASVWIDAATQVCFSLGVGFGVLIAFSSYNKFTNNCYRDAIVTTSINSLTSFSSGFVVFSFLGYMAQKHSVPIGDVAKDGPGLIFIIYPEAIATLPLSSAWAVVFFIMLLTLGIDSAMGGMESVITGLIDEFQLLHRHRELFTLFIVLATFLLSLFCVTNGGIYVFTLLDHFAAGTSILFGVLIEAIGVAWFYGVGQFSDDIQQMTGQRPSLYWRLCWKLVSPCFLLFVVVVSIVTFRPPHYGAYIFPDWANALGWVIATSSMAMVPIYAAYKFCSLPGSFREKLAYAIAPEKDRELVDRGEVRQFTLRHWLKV
human ERG potassium channel (hERG), sequence (Q12809 whole entry): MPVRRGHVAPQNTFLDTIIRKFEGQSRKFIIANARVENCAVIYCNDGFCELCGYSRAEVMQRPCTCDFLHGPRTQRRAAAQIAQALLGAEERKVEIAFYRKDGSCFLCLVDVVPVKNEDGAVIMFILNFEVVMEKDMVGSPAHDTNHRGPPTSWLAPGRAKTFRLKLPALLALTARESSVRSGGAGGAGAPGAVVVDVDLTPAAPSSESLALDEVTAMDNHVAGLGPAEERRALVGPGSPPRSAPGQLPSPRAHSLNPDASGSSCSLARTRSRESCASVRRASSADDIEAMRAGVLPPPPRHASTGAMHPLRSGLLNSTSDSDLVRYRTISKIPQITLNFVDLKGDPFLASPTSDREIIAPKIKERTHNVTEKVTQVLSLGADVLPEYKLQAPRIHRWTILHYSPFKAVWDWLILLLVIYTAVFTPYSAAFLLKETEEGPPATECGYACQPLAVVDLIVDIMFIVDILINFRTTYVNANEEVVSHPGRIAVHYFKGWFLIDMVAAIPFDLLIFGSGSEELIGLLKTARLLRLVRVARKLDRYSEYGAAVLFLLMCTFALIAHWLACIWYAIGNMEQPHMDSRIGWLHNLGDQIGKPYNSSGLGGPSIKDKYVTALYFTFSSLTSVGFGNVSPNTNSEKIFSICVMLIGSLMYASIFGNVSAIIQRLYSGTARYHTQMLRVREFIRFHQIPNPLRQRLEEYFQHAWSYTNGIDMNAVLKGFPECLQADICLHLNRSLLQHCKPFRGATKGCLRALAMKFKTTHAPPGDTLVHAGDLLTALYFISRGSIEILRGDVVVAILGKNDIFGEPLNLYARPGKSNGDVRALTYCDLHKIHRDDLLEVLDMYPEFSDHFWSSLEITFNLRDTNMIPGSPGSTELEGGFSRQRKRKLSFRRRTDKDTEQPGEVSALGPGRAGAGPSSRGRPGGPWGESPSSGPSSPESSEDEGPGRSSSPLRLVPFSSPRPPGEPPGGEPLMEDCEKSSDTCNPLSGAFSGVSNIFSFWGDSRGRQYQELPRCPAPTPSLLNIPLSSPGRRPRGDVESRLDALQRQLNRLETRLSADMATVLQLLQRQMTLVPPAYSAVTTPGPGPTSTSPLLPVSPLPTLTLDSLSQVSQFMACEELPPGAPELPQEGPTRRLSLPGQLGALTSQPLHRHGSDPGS
T3 sequence (P31645 whole entry): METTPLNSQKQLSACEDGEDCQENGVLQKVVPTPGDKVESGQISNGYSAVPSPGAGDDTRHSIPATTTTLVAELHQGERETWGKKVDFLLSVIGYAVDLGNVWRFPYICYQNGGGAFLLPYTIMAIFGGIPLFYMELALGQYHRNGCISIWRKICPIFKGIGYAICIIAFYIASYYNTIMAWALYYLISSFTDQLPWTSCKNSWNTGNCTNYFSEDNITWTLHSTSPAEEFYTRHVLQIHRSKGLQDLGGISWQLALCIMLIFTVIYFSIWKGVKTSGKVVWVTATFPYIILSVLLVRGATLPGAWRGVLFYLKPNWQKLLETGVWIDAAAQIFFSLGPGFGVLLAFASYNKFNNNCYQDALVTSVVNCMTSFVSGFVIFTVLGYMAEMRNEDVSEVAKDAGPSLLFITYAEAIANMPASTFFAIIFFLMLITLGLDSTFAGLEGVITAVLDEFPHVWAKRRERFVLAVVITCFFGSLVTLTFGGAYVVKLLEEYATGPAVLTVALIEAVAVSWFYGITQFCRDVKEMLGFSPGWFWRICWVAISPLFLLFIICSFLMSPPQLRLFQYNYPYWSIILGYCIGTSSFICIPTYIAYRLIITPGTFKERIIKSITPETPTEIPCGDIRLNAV
T2 sequence (P23975 whole entry): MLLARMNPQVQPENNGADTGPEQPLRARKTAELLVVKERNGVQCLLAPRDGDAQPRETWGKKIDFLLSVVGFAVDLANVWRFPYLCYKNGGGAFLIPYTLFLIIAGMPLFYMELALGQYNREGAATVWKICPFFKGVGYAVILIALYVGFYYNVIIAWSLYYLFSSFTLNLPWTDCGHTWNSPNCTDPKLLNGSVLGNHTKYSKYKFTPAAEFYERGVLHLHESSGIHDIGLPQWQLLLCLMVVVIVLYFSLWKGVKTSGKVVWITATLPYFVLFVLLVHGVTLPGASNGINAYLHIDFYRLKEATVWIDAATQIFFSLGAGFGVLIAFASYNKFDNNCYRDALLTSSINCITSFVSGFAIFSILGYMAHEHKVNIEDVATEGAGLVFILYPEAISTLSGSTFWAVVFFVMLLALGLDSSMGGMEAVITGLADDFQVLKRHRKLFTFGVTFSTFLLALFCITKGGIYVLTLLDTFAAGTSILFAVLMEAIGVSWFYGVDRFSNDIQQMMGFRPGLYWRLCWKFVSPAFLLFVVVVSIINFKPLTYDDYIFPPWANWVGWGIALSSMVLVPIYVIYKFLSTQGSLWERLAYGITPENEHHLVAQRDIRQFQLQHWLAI

Compound: OC1CCNCC12CCN(C(c1ccc(F)cc1)c1ccc(F)cc1)C2 (centres unmarked) [Example 3, 2-[bis(4-fluorophenyl)methyl]-2,7-diazaspiro[4.5]decan-10-ol]
- IC50 ([1]; pIC50 DAT): 70.8 nM
- IC50 [2]: 4470 nM
- IC50 [3]: 2510 nM
- IC50 [4]: 12900 nM

Compound: CN1CCC(O)C2(CCN(C(c3ccc(F)cc3)c3ccc(F)cc3)C2)C1 (centres unmarked) [Example 4, 2-[bis(4-fluorophenyl)methyl]-7-methyl-2,7-diazaspiro[4.5]decan-10-ol]
- IC50 [1, 5]: 195 nM
- IC50 [2]: 18200 nM
- IC50 [3]: 1580 nM
- IC50 [4]: 18600 nM

Compound: Fc1ccc(C(c2ccc(F)cc2)N2CCC3(CCNCC3)C2)cc1 [Example 27, 2-[bis(4-fluorophenyl)methyl]-2,8-diazaspiro[4.5]decane]
- IC50 [1, 5]: 148 nM
- IC50 [2]: 1700 nM
- IC50 [3]: 2510 nM
- IC50 [4]: 3470 nM

Compound: Fc1ccc(C(c2ccc(F)cc2)N2CCC3(CNCCO3)C2)cc1 (centres unmarked) [Example 29, 2-[bis(4-fluorophenyl)methyl]-6-oxa-2,9-diazaspiro[4.5]decane]
- IC50 [1, 5]: 107 nM
- IC50 [2]: 1380 nM
- IC50 [3]: 6310 nM
- IC50 [4]: 6920 nM

Compound: Fc1ccc(C(c2ccc(F)cc2)N2CCC3(CC2)CNCCO3)cc1 [Example 31, 9-[bis(4-fluorophenyl)methyl]-1-oxa-4,9-diazaspiro[5.5]undecane]
- IC50 ([1]; pIC50 DAT): 46.8 nM
- IC50 [2]: 2040 nM
- IC50 [3]: 3160 nM
- IC50 [4]: 2630 nM
